Data: patent US20040235890A1, “Remedies for allergic diseases” (priority 2001, published 2004)
Entries after “also recorded” stand apart in the source; their conditions may differ. Counter-ions that a name gives are not always drawn.

Columns and labels:
Allergic rhinitis model = Allergic rhinitis model (ovalbumin-sensitised guinea pig, pituita weight); assay type: in vivo; settings: 0.01%, 0.1% and 1.0% solution, 40 uL nasally into both sides, 10 min before 1% ovalbumin; male Crj Hartley guinea pig; monohydrochloride salt
Experimental: Allergic rhinitis model was produced by administration of ovalbumin to male Crj Hartley guinea pig (6 weeks old) in the procedure shown in table 1.
At day 42, guinea pigs were inserted with tube into the trachea under anesthesia and kept the heat using heat pat. Forty micro liter of (+)-trans-3-imino-5-methyl-7-chloro-2-azabicyclo[4.1.0]heptane monohydrochloride salt (referred to as “compound A”) or physiological saline was administered nasally into both sides. Ten minutes later, 40 uL of 1% ovalbumin was administered nasally into both sides. Thirty minutes after ovalbumin administration, moisture in the nose was removed with absorbent cotton. Fifteen minutes later, absorbent cotton of which weight was measured was inserted into nose for 15 minutes. Pituita weight was calculated by the difference in weight between pre and post insertion.

NOS = settings: cited from earlier work

C[C@H]1CC(=N)N[C@@H]2[C@H](Cl)[C@@H]21 (relative stereo) [compound A, (+)-trans-3-imino-5-methyl-7-chloro-2-azabicyclo[4.1.0]heptane monohydrochloride salt]
Pituita weight (suppression as compared to control, physiological saline) (Allergic rhinitis model): suppresses pituita weight in dose dependent manner; also recorded: noticeably suppresses pituita weights

COC(=O)[C@@H](N)CCCNC(=N)N[N+](=O)[O-] [L-NAME, N-ω-nitro-L-arginine methylester]
increase in NO production and vascular permeability in allergic conjunctivitis (NOS; Cornea, 19(1), 84-91 (2000)): suppressed
prostaglandin E2 production in acute phase of allergic conjunctivitis (NOS; Prostaglandins, 52(6), 431-446 (1996)): suppresses prostaglandin E2 production
effect on allergic conjunctivitis (NOS; in vivo): the action is weak
